Results on one molecule are retold here after publication PMC7913927, “Leishmanicidal Activity of Betulin Derivatives in Leishmania amazonensis; Effect on Plasma and Mitochondrial Membrane Potential, and Macrophage Nitric Oxide and Superoxide Production” (Microorganisms, 2021).

The subject of the assay is L. (L.) amazonensis LTB0016, VE98MR and VE2000MM promastigotes. Briefly: Mitochondrial membrane potential (ΔΨm), JC-1 fluorescence. Type of assay: cell-based, Leishmania amazonensis. The settings on record: promastigotes of LTB0016, VE98MR, 48 h, 18: 1 and 2 µM, 22: 2 and 4 µM, vs untreated. Here is the method:
To evaluate the mitochondrial membrane potential (ΔΨm), the fluorescent compound JC-1 (5,5′,6,6′-tetrachloro-1,1′,3,3′-tetraethylbenzimidazolocarbocyanine iodide) was used, according to a modification of a previously described method. Exponential phase promastigotes were suspended at 26 °C, in RPMIc without phenol red, in a volume of 1 mL, at a cell density of 1 × 10^7 parasites mL^−1. The parasites were left to grow for 48 h, in the presence and absence of the test compounds. Then, after centrifuging (500× g for 10 min) and washing the parasites twice with PBS, they were resuspended in 200 µL of HEPES-G, and placed in 96-well plates. […] Finally, fluorescence was measured in a Victor^2 Wallac spectrofluorometer (Perkin Elmer, Turku, Finland) at the appropriate wavelengths (ex: 485 nm/em: 535 and 580 nm). As the mitochondrial membrane is polarized, JC-1 produces intra-mitochondrial aggregates “J-aggregates” that emit a red fluorescence (λ 590 nm). Mitochondrial membrane depolarization induces JC-1 monomeric conformation in the cytoplasm, then the fluorescence turns green (λ 530 nm). The red/green ratio of fluorescence then is an indirect measurement of the mitochondrial membrane potential. A more depolarized mitochondria means a lower ratio of red/green fluorescence.
Relative fluorescence (RF) was calculated, where RF = 580 nm fluorescence/535 nm fluorescence (red/green). […]

Entries after “also recorded” stand apart in the source; their conditions may differ.

In the case of `C=C(C)C1CCC2(C=NO)CCC3(C)C(CCC4C5(C)CCC(=NO)C(C)(C)C5CCC43C)C12` (stereo not shown) [Compound 18], the “Effect on mitochondrial membrane potential (ΔΨm)” value is listed as “significantly depolarized; also recorded: depolarizes ΔΨm in a concentration-dependent way”.
